Tests used:
human glucagon receptor [1] = molecular target: T1, human glucagon receptor (Homo sapiens (Human), UniProt P47871); test: Glucagon cAMP Assay (Cisbio cAMP detection); assay type: cell-based; details: CHOK1 cells stably transfected with the human glucagon receptor; block of glucagon induced cAMP production; Kb by modified Cheng-Prusoff equation
Protocol: The Cisbio cAMP detection assay is used to determine the ability of punitive glucagon antagonist to block glucagon induced cAMP production. Potential glucagon antagonists are re-suspended and diluted in 100% DMSO. Prior to use in the Glucagon cAMP assay 100×DMSO compound stocks are diluted 20× with DMEM-F12 media (Invitrogen) containing either 0.1% or 4% BSA. […] 2 μls of 5% DMSO or known glucagon antagonist are added to each plate to define the assay window. CHOK1 cells stably transfected with the human glucagon receptor are removed from culture flasks with cell dissociation buffer. Cell pellets are re-suspended, at a concentration of 8.3e^5 cells/ml in DMEM-F12 with or without 4% BSA and 200 uM IBMX. 6 μls of cell suspensions are added to the assay plates. Plates are incubated for 20 min at room temperature prior to the addition of a 100 μM challenge dose of glucagon. On a separate plate glucagon dose response curves are run to determine the EC50 of glucagon. After a 30 min room temperature incubation the reaction is terminated by the addition of lysis buffer containing the cAMP detection reagents. Plates are incubated for an additional 60 min at room temperature prior to being read on the Perkin Elmer fluorescent plate reader. Raw is converted to nM of cAMP produced based on a cAMP standard curve. Converted data is then analyzed using the Pfizer data analysis program. IC50 values are determined from the generated sigmoidal dose response curves. Kb values are calculated using a modified Cheng-Prusoff equation. N is the number of times the compound was assayed.

human glucagon receptor [2] = molecular target: T1, human glucagon receptor; test: Human Glucagon SPA Assay (binding of [125I]Glucagon-Cex); details: membrane from chem-1 cells stably transfected with the human glucagon receptor, Ki by Cheng-Prusoff equation
Protocol: The Glucagon SPA assay is used to determine the ability of test compounds to block the binding of glucagon-cex to the glucagon receptor. Test compounds are re-suspended and serially diluted in 100% DMSO. 1 μl of test compound at the desired concentrations is spotted into the appropriate wells of 96 well low binding white clear bottom plate (Corning). 1 μl of DMSO is spotted into total binding wells. 1 μl of a known glucagon antagonist at a concentration of 20 μM is added to non specific binding wells. […] All assay ingredients with the exception of test compounds are re-suspended in the following buffer; 50 mM Hepes pH 7.4; 5 mM MgCl2; 1 mM CaCl; 5% glycerol and 0.2% BSA. Following a 6-10 hr incubation at room temperature the amount of hot ligand bound to the cell membranes is determined by reading the plates on a Wallac Trilux radioactive emission detector. Data is analyzed using Pfizer's Data analysis program. IC50 values are then determined from the generated sigmoidal dose response curves. Ki values are calculated using Cheng-Prusoff equation. N is the number of times the compound was assayed.

T1 sequence (P47871 26-477): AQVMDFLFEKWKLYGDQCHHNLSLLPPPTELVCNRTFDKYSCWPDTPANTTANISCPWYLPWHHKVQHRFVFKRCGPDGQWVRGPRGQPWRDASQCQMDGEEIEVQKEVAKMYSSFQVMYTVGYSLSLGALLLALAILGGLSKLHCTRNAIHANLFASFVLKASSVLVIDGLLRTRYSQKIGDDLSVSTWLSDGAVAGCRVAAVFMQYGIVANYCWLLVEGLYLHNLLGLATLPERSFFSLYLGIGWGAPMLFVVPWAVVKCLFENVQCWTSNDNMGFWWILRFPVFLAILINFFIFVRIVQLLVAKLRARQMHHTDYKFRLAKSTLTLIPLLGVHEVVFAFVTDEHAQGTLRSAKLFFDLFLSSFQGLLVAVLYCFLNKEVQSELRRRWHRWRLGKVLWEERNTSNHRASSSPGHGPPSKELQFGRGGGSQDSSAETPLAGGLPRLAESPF

| SMILES | Kb (human glucagon receptor [1]) | Ki (human glucagon receptor [2]) |
| --- | --- | --- |
| CCCC(Oc1ccc(-n2cc(Cl)c(C)n2)cc1)c1ccc(C(=O)NCCC(=O)O)cc1 (racemic) [Example 22, (+/−)-3-(4-(1-(4-(4-chloro-3-methyl-1H-pyrazol-1-yl)phenoxy)butyl)benzamido)propanoic acid] | 835 nM | 0.665 µM |
| CCCCc1ccn(-c2ccc(OC(CCC)c3ccc(C(=O)NCCC(=O)O)cc3)cc2)n1 (racemic) [Example 31, (+/−)-3-(4-(1-(4-(3-butyl-1H-pyrazol-1-yl)phenoxy)butyl)benzamido)propanoic acid] | 1450 nM | 1.33 µM |
| CCCC(Oc1ccc(-c2cc(C(F)(F)F)nn2C)cc1)c1ccc(C(=O)NCCC(=O)O)cc1 (racemic) [Example 53, (+/−)-3-(4-(1-(4-(1-methyl-3-(trifluoromethyl)-1H-pyrazol-5-yl)phenoxy)butyl)benzamido)propanoic acid] | 2610 nM | 0.556 µM |
| O=C(O)CCNC(=O)c1ccc(C(Nc2ccc(-n3cc(C(F)(F)F)cn3)nc2)C2CCCCC2)cc1 (racemic) [Example 101, (+/−)-3-(4-(cyclohexyl(6-(4-(trifluoromethyl)-1H-pyrazol-1-yl)pyridine-3-ylamino)methyl)benzamido)propanoic acid] | 79.3 nM | 0.017 µM |
| Cc1cc(NC(CC(C)C)c2ccc(C(=O)NCCC(=O)O)cc2)cnc1-n1cc(C(F)(F)F)cn1 (racemic) [Example 105, (+/−)-3-(4-(3-methyl-1-(5-methyl-6-(4-(trifluoromethyl)-1H-pyrazol-1-yl)pyridin-3-ylamino)butyl)benzamido)propanoic acid] | 455 nM | 0.0698 µM |
| O=C(O)CCNC(=O)c1ccc(C(Nc2ccc(-n3cc(C(F)(F)F)cn3)nc2)C2CCC2)cc1 (racemic) [Example 106, (+/−)-3-(4-(cyclobutyl(6-(4-(trifluoromethyl)-1H-pyrazol-1-yl)pyridin-3-ylamino)methyl)benzamido)propanoic acid] | 187 nM | 0.0919 µM |
| O=C(O)CCNC(=O)c1ccc(C(CC2CC2)Nc2ccc(-n3cc(C(F)(F)F)cn3)nc2)cc1 (racemic) [Example 107, (+/−)-3-(4-(2-cyclopropyl-1-(6-(4-(trifluoromethyl)-1H-pyrazol-1-yl)pyridin-3-ylamino)ethyl)benzamido)propanoic acid] | 252 nM | 0.0716 µM |
| O=C(O)CCNC(=O)c1ccc(C(Oc2ccc(-n3cc4ccccc4n3)cc2)C2CCCC2)cc1 (racemic) [Example 119, (+/−)-3-(4-((4-(2H-indazol-2-yl)phenoxy)(cyclopentyl)methyl)benzamido)propanoic acid] | 67 nM | 0.103 µM |
| O=C(O)CCNC(=O)c1ccc(C(Nc2ccc(-n3cnc(C(F)(F)F)c3)nc2)C(F)(F)F)cc1 (racemic) [Example 121, (+/−)-3-(4-(2,2,2-trifluoro-1-(6-(4-(trifluoromethyl)-1H-imidazol-1-yl)pyridin-3-ylamino)ethyl)benzamido)propanoic acid] | 764 nM | 0.298 µM |
| CC(C)(C)c1cn(-c2ccc(NC(c3ccc(C(=O)NCCC(=O)O)cc3)C3CCCC3)cn2)cn1 (racemic) [Example 122, (+/−)-3-(4-((6-(4-tert-butyl-1H-imidazol-1-yl)pyridin-3-ylamino)(cyclopentyl)methyl)benzamido)propanoic acid] | 43 nM | 0.0457 µM |
| CCCC(Oc1cnc(-n2cc(C(F)(F)F)cn2)c(C)c1)c1ccc(C(=O)NCCC(=O)O)cc1 (racemic) [Example 150, (+/−)-3-(4-(1-(5-methyl-6-(4-(trifluoromethyl)-1H-pyrazol-1-yl)pyridin-3-yloxy)butyl)benzamido)propanoic acid] | 1640 nM | 0.446 µM |
| Cc1cc(OC(c2ccc(C(=O)NCCC(=O)O)cc2)C2CCC2)cc(C)c1-n1cc(C(F)(F)F)cn1 (racemic) [Example 151, (+/−)-3-(4-(cyclobutyl(3,5-dimethyl-4-(4-(trifluoromethyl)-1H-pyrazol-1-yl)phenoxy)methyl)benzamido)propanoic acid] | 227 nM | 0.0202 µM |

— patent US8507533B2, “Glucagon receptor modulators” (Pfizer Inc., priority 2011, dated 2013)
